The record followed here is patent US20250154154A1 (Relay Binney Street, 2nd Floor, priority 2020, published 2025).

The test system of experiment [1] is phospho-S6RP (Ser 235/236) in RBE cells. As to the kind of experiment: Cellular Proliferation Protocol (cellular phospho-S6RP HTRF), RBE cells. Format: cell-based. The note with it: 6 hours treatment, RBE or SNU-1079 cells, cell line not given. The procedure, abridged:
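Phospho-S6RP (Ser 235/236) was quantified by HTRF in lysed RBE cells (2000/well) after a 6 h treatment at 37° C, with overnight antibody incubation at room temperature. IC50 values came from 4-parameter dose-response fits relative to DMSO vehicle.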

Another experiment concerns the target SRC (Homo sapiens, UniProt P12931). As to the kind of experiment: SRC Biochemical Assay Protocol (microfluidic mobility shift assay, FLPeptide4 substrate). The procedure, abridged:
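Mobility-shift readout of phosphorylated FLPeptide4 (1.5 μM) after 90 min kinase reaction with 50 μM ATP and 0.26 nM SRC in pH 7.4 HEPES buffer. Compounds, tested 0.0017–100 μM, were preincubated 30 min with enzyme and peptide; IC50 from 4-parameter logistic fit versus neutral controls.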

A further experiment deals with RBE cells. Put plainly: Cell Viability Protocol (CellTiterGlo), RBE cells. The note with it: RBE or SNU-1079 cells, 72 or 120 hour, cell line and time not given. Format: cell-based. The procedure, abridged:
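After 72 h or 120 h compound exposure at 37° C, viability was read by CellTiterGlo as % of DMSO vehicle, with IC50 fitted by a 4-parameter curve. Cells had been seeded at 1200/well in 10% FBS RPMI 1640 and allowed 24 h before dosing.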
Background: In ATP-based viability assays light output follows the ATP content of the culture.

For orientation: IC50 means the point on the concentration scale where inhibition reaches its midpoint. In the case of `C=CC(=O)N1CC[C@@H](N2CC(C#Cc3c(-c4ccc(Oc5cccc(C)n5)c(OC)c4)c4c(N)ncnc4n3C)C2)[C@H](O)C1` [II-217, 1-((3R,4R)-4-(3-((4-amino-5-(3-methoxy-4-((6-methylpyridin-2-yl)oxy)phenyl)-7-methyl-7H-pyrrolo[2,3-d]pyrimidin-6-yl)ethynyl)azetidin-1-yl)-3-hydroxypiperidin-1-yl)prop-2-en-1-one], the IC50 (in experiment [1] (6 h); at SRC; with RBE cells) was 10 to 1000 nM each time.
Turning to `C=CC(=O)N1C[C@@H]2[C@@H](C#Cc3c(-c4ccc(Oc5cccc(C)n5)c(OC)c4)c4c(N)ncnc4n3CCCS(C)(=O)=O)[C@@H]2C1` [II-279], the IC50 (in experiment [1] (6 h); on SRC; in the experiment with RBE cells) was 10 to 1000 nM throughout.
With `C=CC(=O)N1C[C@@H]2[C@@H](C#Cc3c(-c4ccc(Oc5ccccc5)cc4Cl)c4c(N)ncnc4n3C)[C@@H]2C1` [II-48], the IC50 in experiment [1] was not above 10 nM; on SRC, 10 to 1000 nM; in the experiment with RBE cells, not above 10 nM.
For the compound `C=CC(=O)N1CCC(N2CC(C#Cc3c(-c4ccc(Cl)c(F)c4)c4c(N)ncnc4n3C)C2)CC1` [II-96], the concentration for half-maximal inhibition (IC50) (in experiment [1]; at SRC; with RBE cells) was 10 to 1000 nM throughout.
`CN(C)C/C=C/C(=O)N1C[C@@H]2[C@@H](C#Cc3c(-c4ccc(Oc5ccccc5)cc4)c4c(N)ncnc4n3C)[C@@H]2C1` [III-2]: the IC50 in experiment [1] was not above 10 nM; at SRC, 10 to 1000 nM; in the experiment on RBE cells it was not above 10 nM.
For the compound `C=CC(=O)N1CC[C@@H](N2CC(C#Cc3c(-c4ccc(Oc5ccccc5)cc4)c4c(N)ncnc4n3C)C2)[C@@H](F)C1` [II-171, 1-((3S,4R)-4-(3-((4-amino-7-methyl-5-(4-phenoxyphenyl)-7H-pyrrolo[2,3-d]pyrimidin-6-yl)ethynyl)azetidin-1-yl)-3-fluoropiperidin-1-yl)prop-2-en-1-one], the IC50 in experiment [1] (6 h) was not above 10 nM; at SRC it was 10 to 1000 nM; in the experiment with RBE cells it was not above 10 nM.
`C=CC(=O)N1CCC(N2CC(C#Cc3c(-c4ccc(Oc5ccccc5)cc4)c4c(N)ncnc4n3[C@H](C)CO)C2)CC1` [II-168, (R)-1-(4-(3-((4-amino-7-(1-hydroxypropan-2-yl)-5-(4-phenoxyphenyl)-7H-pyrrolo[2,3-d]pyrimidin-6-yl)ethynyl)azetidin-1-yl)piperidin-1-yl)prop-2-en-1-one]: the IC50 in experiment [1] (6 h) was not above 10 nM; on SRC it was 10 to 1000 nM; in the experiment with RBE cells, not above 10 nM.
Consider `C=CC(=O)N1CC[C@H](N2CC(C#Cc3c(-c4ccc(Cl)c(C)n4)c4c(N)ncnc4n3C(C)C)C2)[C@H](F)C1` [II-328], for which the IC50 (in experiment [1]; at SRC; with RBE cells) was 10 to 1000 nM each time.
For `C=CC(=O)N1CCC(N2CC(C#Cc3c(-c4ccc(Cl)cn4)c4c(N)ncnc4n3C)C2)CC1` [II-325], the IC50 is 1000 to 10000 nM in experiment [1], 10 to 1000 nM at SRC and 1000 to 10000 nM in the experiment with RBE cells.
In the case of `C=CC(=O)N1C[C@@H]2[C@@H](C#Cc3c(-c4ccc(Oc5cccc(C)n5)cc4OC)c4c(N)ncnc4n3CCOC)[C@@H]2C1` [II-276], the IC50 (in experiment [1] (6 h); on SRC; with RBE cells) was 10 to 1000 nM each time.
As for `C=CC(=O)NCC(=O)N1C[C@@H]2[C@@H](C#Cc3c(-c4ccc(Oc5ccccc5)cc4)c4c(N)ncnc4n3C)[C@@H]2C1` [II-211, N-[2-[(1R,5S,6S)-6-[2-[4-amino-7-methyl-5-(4-phenoxyphenyl)-7H-pyrrolo[2,3-d]pyrimidin-6-yl]ethynyl]-3-azabicyclo[3.1.0]hexan-3-yl]-2-oxoethyl]prop-2-enamide], the IC50 (in experiment [1] (6 h); on SRC; in the experiment on RBE cells) was not above 10 nM throughout.
Turning to `CN(C)C/C=C/C(=O)N1CC(C#Cc2c(-c3ccc(Oc4ccccc4)cc3)c3c(N)ncnc3n2CCO)C1` [II-194, (E)-1-(3-((4-amino-7-(2-hydroxyethyl)-5-(4-phenoxyphenyl)-7H-pyrrolo[2,3-d]pyrimidin-6-yl)ethynyl)azetidin-1-yl)-4-(dimethylamino) but-2-en-1-one], the concentration for half-maximal inhibition (IC50) (in experiment [1] (6 h); at SRC; with RBE cells) was 10 to 1000 nM each time.
As to `C=CC(=O)N1CCC(N2CC(C#Cc3c(-c4ccc(Oc5ccccc5)cc4)c4c(N)ncnc4n3CCO)C2)CC1` [II-190, 1-(4-(3-((4-amino-7-(2-hydroxyethyl)-5-(4-phenoxyphenyl)-7H-pyrrolo[2,3-d]pyrimidin-6-yl)ethynyl)azetidin-1-yl)piperidin-1-yl)prop-2-en-1-one], the IC50 in experiment [1] (6 h) was 10 to 1000 nM; on SRC, 10 to 1000 nM; in the experiment on RBE cells it was not above 10 nM.
Take `C=CC(=O)N1CCC(N2CC(F)(C#Cc3c(-c4ccc(Oc5ccccc5)c(OC)c4)c4c(N)ncnc4n3C)C2)CC1` [II-246, 1-(4-(3-((4-amino-5-(3-methoxy-4-phenoxyphenyl)-7-methyl-7H-pyrrolo[2,3-d]pyrimidin-6-yl)ethynyl)-3-fluoroazetidin-1-yl)piperidin-1-yl)prop-2-en-1-one]: the results for the IC50 (in experiment [1] (6 h); on SRC; in the experiment on RBE cells) were 10 to 1000 nM, 10 to 1000 nM and not above 10 nM, respectively.
`Cn1c(C#CC2CCCN(C(=O)/C=C/CN3CC(O)C3)CC2)c(-c2ccc(Oc3ccccc3)cc2)c2c(N)ncnc21` (stereo not drawn) [II-183, (E)-1-(4-((4-amino-7-methyl-5-(4-phenoxyphenyl)-7H-pyrrolo[2,3-d]pyrimidin-6-yl)ethynyl)azepan-1-yl)-4-(3-hydroxyazetidin-1-yl)but-2-en-1-one]: the IC50 fell in the range of 1000 to 10000 nM in experiment [1] (6 h), 10 to 1000 nM at SRC and 10 to 1000 nM with RBE cells.
`CN(C)CC=CC(=O)N1CC2C(C#Cc3c(-c4cccc5c4OCO5)c4c(N)ncnc4n3C)C2C1` (stereo not drawn) [II-115]: the results for the IC50 (in experiment [1]; at SRC; with RBE cells) were 10 to 1000 nM, not above 10 nM and 10 to 1000 nM, respectively.
In the case of `C=CC(=O)N1CCC(N2CC(C#Cc3c(-c4ccc(Cl)c(OC)n4)c4c(N)ncnc4n3C)C2)CC1CO` (stereo not drawn) [II-319], the IC50 (in experiment [1]; at SRC; with RBE cells) was 10 to 1000 nM each time.
With `C=CC(=O)N1CC[C@@H](N2CC(C#Cc3c(-c4ccc(Oc5ccccc5)cc4)c4c(N)ncnc4n3C)C2)[C@@H](O)C1` [II-165, 1-((3S,4R)-4-(3-((4-amino-7-methyl-5-(4-phenoxyphenyl)-7H-pyrrolo[2,3-d]pyrimidin-6-yl)ethynyl)azetidin-1-yl)-3-hydroxypiperidin-1-yl)prop-2-en-1-one], the IC50 was not above 10 nM in experiment [1] (6 h), 10 to 1000 nM on SRC and not above 10 nM in the experiment with RBE cells.
For `C=CC(=O)N1C[C@@H]2[C@@H](C#Cc3c(-c4ccc(Oc5ccccc5)cc4OC)c4c(N)ncnc4n3C)[C@@H]2C1` [II-41], the IC50 (in experiment [1]; on SRC; with RBE cells) was not above 10 nM each time.
Regarding `C=CC(=O)N1CC[C@@H](N2CC(C#Cc3c(-c4ccc(Oc5ccsn5)cc4)c4c(N)ncnc4n3C)C2)[C@@H](O)C1` [II-12], the IC50 (in experiment [1] (6 h); at SRC; in the experiment on RBE cells) was 10 to 1000 nM in each case.
In the case of `C=CC(=O)N1CCC(C#Cc2c(-c3ccc(Oc4ccccc4)cc3)c3c(N)ncnc3n2C2CCOC2)CC1` (stereo not drawn) [Example I-32], the results for the IC50 (in experiment [1] (6 h); at SRC; in the experiment with RBE cells) were not above 10 nM, 10 to 1000 nM and 10 to 1000 nM, respectively.
On to “1-((3S,4R)-4-(3-((4-amino-7-methyl-5-(4-(1-methyl-cyclopropoxy)phenyl)-7H-pyrrolo[2,3-d]pyrimidin-6-yl)ethynyl)azetidin-1-yl)-3-hydroxypiperidin-1-yl)prop-2-en-1-one [II-17]”, for which the figures for the IC50 (in experiment [1]; at SRC; with RBE cells) were not above 10 nM, 10 to 1000 nM and not above 10 nM, respectively.
`C=CC(=O)N1CC[C@@H](N2CC(C#Cc3c(-c4ccc(OC(F)(F)F)cc4)c4c(N)ncnc4n3C)C2)[C@@H](O)C1` [II-73]: the IC50 (in experiment [1]; at SRC; in the experiment with RBE cells) was 10 to 1000 nM each time.
On to `Cc1cccc(Oc2ccc(-c3c(C#C[C@@H]4[C@H]5CN(C(=O)/C=C/CN6CCC(F)C6)C[C@@H]45)n(C)c4ncnc(N)c34)cc2)n1` (stereo partly drawn) [II-230, (E)-1-((1R,5S,6s)-6-((4-amino-7-methyl-5-(4-((6-methylpyridin-2-yl)oxy)phenyl)-7H-pyrrolo[2,3-d]pyrimidin-6-yl)ethynyl)-3-azabicyclo[3.1.0]hexan-3-yl)-4-(3-fluoropyrrolidin-1-yl)but-2-en-1-one], for which the IC50 (in experiment [1] (6 h); on SRC; with RBE cells) was 10 to 1000 nM throughout.
For the compound `C=CC(=O)N1C[C@@H]2[C@@H](C#Cc3c(-c4ccc(Oc5ccccc5)cc4OC)c4c(N)ncnc4n3C3CCOC3)[C@@H]2C1` (mixture of isomers) [II-40], the IC50 (in experiment [1]; on SRC; in the experiment on RBE cells) was not above 10 nM in each case.
Take `Cn1c(C#CC2CC3(C2)CN(C(=O)/C=C/CN2CCC2)C3)c(-c2ccc(Oc3ccccc3)cc2)c2c(N)ncnc21` [II-173, (E)-1-(6-((4-amino-7-methyl-5-(4-phenoxyphenyl)-7H-pyrrolo[2,3-d]pyrimidin-6-yl)ethynyl)-2-azaspiro[3.3]heptan-2-yl)-4-(azetidin-1-yl)but-2-en-1-one]: the IC50 in experiment [1] (6 h) is 10 to 1000 nM; at SRC, not above 10 nM; in the experiment on RBE cells, not above 10 nM.
